Experimental data taken from patent publication US9120791B2, “Indolizine compounds, a process for their preparation and pharmaceutical compositions containing them” (LES LABORATOIRES SERVIER, priority 2012, dated 2015).
Counter-ions that a name gives are not always drawn. Like-named read-outs stand apart in the source and are kept apart here.

Key:
[1] = target: Bcl-2 protein (Homo sapiens (Human), UniProt P10415); assay: Inhibition of Bcl-2 by the fluorescence polarisation technique; assay type: binding; conditions: fluorescence polarisation test; concentration that inhibits fluorescence polarisation by 50%; read-out: IC50 (nM) Bcl-2 FP
Experimental: The fluorescence polarisation tests were carried out on microplates (384 wells). […] After incubation for 2 hours, the fluorescence polarisation is measured.

[2] = test system: RS4;11 leukaemia tumour line; assay: In vitro cytotoxicity (Microculture Tetrazolium Assay, 48 hours); assay type: cell-based; conditions: RS4;11 cells, 48 hours exposure, MTT, concentration that inhibits cell viability by 50%, read-out: IC50 (nM) MTT RS4
Experimental: The cytotoxicity studies were carried out on the RS4;11 leukaemia tumour line.
The cells are distributed onto microplates and exposed to the test compounds for 48 hours.

[3] = test system: caspase 3; assay: Induction of caspase activity in vivo (DEVDase activity in tumour lysates, RS4;11 xenograft); parameters: species or system mice (SCID strain); conditions: oral treatment, 16 hours after treatment, RS4;11 xenograft in SCID mice; for Activation factor (versus control), DEVDase activity in the tumours / fold induction at 50 mg/kg: 50 mg/kg
Experimental: (§1) The ability of the compounds of the invention to activate caspase 3 is evaluated in a xenograft model of RS4;11 leukaemia cells.
1×10^7 RS4;11 cells are grafted sub-cutaneously into immunosuppressed mice (SCID strain). 25 to 30 days after the graft, the animals are treated orally with the various compounds. Sixteen hours after treatment, the tumour masses are recovered and lysed, and the caspase 3 activity is measured in the tumour lysates.
This enzymatic measurement is carried out by assaying the appearance of a fluorigenic cleavage product (DEVDase activity, Promega). It is expressed in the form of an activation factor corresponding to the ratio between the two caspase activities:the activity for the treated mice divided by the activity for the control mice.

[4] = test system: cleaved form of caspase 3; assay: Quantification of the cleaved form of caspase 3 in vivo (MSD ELISA, RS4;11 xenograft); parameters: species or system mice (SCID strain); conditions: oral treatment, RS4;11 xenograft in SCID mice
Experimental: as §1
1×10^7 RS4;11 cells are grafted subcutaneously into immunosuppressed mice (SCID strain). 25 to 30 days after the graft, the animals are treated orally with the various compounds. After treatment, the tumour masses are recovered and lysed, and the cleaved (activated) form of caspase 3 is quantified in the tumour lysates.
The quantification is carried out using the “Meso Scale Discovery (MSD) ELISA platform” test, which specifically assays the cleaved form of caspase 3. It is expressed in the form of an activation factor corresponding to the ratio between the quantity of cleaved caspase 3 in the treated mice divided by the quantity of cleaved caspase 3 in the control mice.

[5] = Mus musculus, read-out: Activation factor (versus control), DEVDase activity in the tumours

Bcl-2 protein, sequence (P10415 whole entry): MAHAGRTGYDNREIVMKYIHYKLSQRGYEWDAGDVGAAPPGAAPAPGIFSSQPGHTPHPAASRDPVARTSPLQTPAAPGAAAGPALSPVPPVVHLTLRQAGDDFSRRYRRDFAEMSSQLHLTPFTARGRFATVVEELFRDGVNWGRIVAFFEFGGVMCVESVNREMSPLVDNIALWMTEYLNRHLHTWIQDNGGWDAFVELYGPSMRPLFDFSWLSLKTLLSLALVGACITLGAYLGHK

Structure (SMILES) | IC50 [1] | IC50 ([2]; Homo sapiens) | fold induction at 100 mg/kg ([3]; Mus musculus, 100 mg/kg, read-out: Activation factor (versus control), DEVDase activity in the tumours) | IC50 [2] | Activation factor (versus control), DEVDase activity in the tumours [3] | fold induction at 50 mg/kg [3, 5] | Activation factor (versus control), cleaved caspase 3 MSD test in the tumours ([4]; 25 mg/kg) | Activation factor (versus control), cleaved caspase 3 MSD test in the tumours ([4]; 50 mg/kg)
Cc1ccc(N(C(=O)c2cc(-c3cc4c(cc3C(=O)N3Cc5ccccc5C[C@H]3CN3CCOCC3)OCO4)n3c2CCCC3)c2ccc(O)cc2)cc1 [Example 2, N-(4-Hydroxyphenyl)-N-(4-methylphenyl)-3-{6-[((3S)-3-(4-morpholinylmethyl)-3,4-dihydro-2(1H)-isoquinolinyl)carbonyl]-1,3-benzodioxol-5-yl}-5,6,7,8-tetrahydro-1-indolizine carboxamide hydrochloride] | 20 nM | 49.8 nM | 27.8 |  |  |  |  | 
Cl.O=C(c1cc(-c2cc3c(cc2C(=O)N2Cc4ccccc4C[C@H]2CN2CCOCC2)OCO3)n2c1CCCC2)N(c1ccc(O)cc1)c1ccc(Cl)cc1 [Example 3, N-(4-Chlorophenyl)-N-(4-hydroxyphenyl)-3-{6-[((3S)-3-(4-morpholinylmethyl)-3,4-dihydro-2(1H)-isquinolinyl)carbonyl]-1,3-benzdioxol-5-yl}-5,6,7,8-tetrahydro-1-indolizine carboxamide hydrochloride] |  |  |  | 44.7 nM | 5.7 (50 mg/kg) |  |  | 
Cc1ccc(N(C(=O)c2cc(-c3cc4c(cc3C(=O)N3Cc5ccccc5C[C@H]3CN3CCOCC3)OCO4)n3c2CCCC3)c2ccc(O)cc2)cc1F [Example 4, N-(3-Fluoro-4-methylphenyl)-N-(4-hydroxyphenyl)-3-{6-[((3S)-3-(4-morpholinylmethyl)-3,4-dihydro-2(1H)-isoquinolinyl)carbonyl]-1,3-benzodioxol-5-yl}-5,6,7,8-tetrahydro-1-indolizine carboxamide hydrochloride] | 19 nM | 27.1 nM |  |  |  | 29.2 |  | 
O=C(c1cc(-c2cc3c(cc2C(=O)N2Cc4ccccc4C[C@H]2CN2CCOCC2)OCO3)n2c1CCCC2)N(c1ccc(O)cc1)c1ccc2c(c1)CCN2 [Example 8, N-(2,3-Dihydro-1H-indol-5-yl)-N-[4-(hydroxy)phenyl]-3-{6-[((3S)-3-(4-morpholinylmethyl)-3,4-dihydro-2(1H)-isoquinolinyl)carbonyl]-1,3-benzodioxol-5-yl}-5,6,7,8-tetrahydro-1-indolizine carboxamide bis(hydrochloride)] | 15 nM | 25.6 nM |  |  |  | 9.8 |  | 
CN1CCc2cc(N(C(=O)c3cc(-c4cc5c(cc4C(=O)N4Cc6ccccc6C[C@H]4CN4CCOCC4)OCO5)n4c3CCCC4)c3ccc(O)cc3)ccc21 [Example 9, N-[4-(Hydroxy)phenyl]-N-(1-methyl-2,3-dihydro-1H-indol-5-yl)-3-{6-[((3S)-3-(4-morpholinylmethyl)-3,4-dihydro-2(1H)-isoquinolinyl)carbonyl]-1,3-benzodioxol-5-yl}-5,6,7,8-tetrahydro-1-indolizine carboxamide hydrochloride] | 13 nM | 16.1 nM |  |  |  | 20.6 |  | 
Cn1ccc2cc(N(C(=O)c3cc(-c4cc(Cl)ccc4C(=O)N4Cc5ccccc5C[C@H]4CN4CCOCC4)n4c3CCCC4)c3ccc(O)cc3)ccc21 [Example 22, 3-{5-Chloro-2-[((3S)-3-(4-morpholinylmethyl)-3,4-dihydro-2(1H)-isoquinolinyl)carbonyl]phenyl}-N-(4-hydroxyphenyl)-N-(1-methyl-1H-indol-5-yl)-5,6,7,8-tetrahydro-1-indolizine carboxamide hydrochloride] | 27 nM | 19.1 nM |  |  |  | 11.3 |  | 
CN1CCc2cc(N(C(=O)c3cc(-c4cc(Cl)ccc4C(=O)N4Cc5ccccc5C[C@H]4CN4CCOCC4)n4c3CCCC4)c3ccc(O)cc3)ccc21 [Example 23, 3-{5-Chloro-2-[((3S)-3-(4-morpholinylmethyl)-3,4-dihydro-2(1H)-isoquinolinyl)carbonyl]phenyl}-N-(4-hydroxyphenyl)-N-(1-methyl-2,3-dihydro-1H-indol-5-yl)-5,6,7,8-tetrahydro-1-indolizine carboxamide bis(hydrochloride)] | 14 nM | 23 nM |  |  |  | 22.7 |  | 
Cl.O=C(c1cc(-c2cc3c(cc2C(=O)N2Cc4ccccc4C[C@H]2CN2CCOCC2)OCO3)n2ccccc12)N(c1ccccc1)c1ccc(O)cc1 [Example 58, N-(4-Hydroxyphenyl)-3-{6-[((3S)-3-(4-morpholinylmethyl)-3,4-dihydro-2(1H)-isoquinolinyl)carbonyl]-1,3benzodioxol-5-yl}-N-phenyl-indolizine carboxamide hydrochloride] |  |  |  | 40.1 nM | 23.3 (50 mg/kg) |  |  | 
Cn1ccc2cc(N(C(=O)c3cc(-c4cc5c(cc4C(=O)N4Cc6ccccc6C[C@H]4CN4CCOCC4)OCO5)n4ccccc34)c3ccc(O)cc3)ccc21 [Example 59, N-(4-Hydroxyphenyl)-N-(1-methyl-1H-indol-5-yl)-3-{6-[((3S)-3-(4-morpholinylmethyl)-3,4-dihydro-2(1H)-isoquinolinyl)carbonyl]-1,3-benzodioxol-5-yl}-1-indolizine carboxamide hydrochloride] | 13 nM | 8.13 nM |  |  |  | 23 |  | 
CN1CCc2cc(N(C(=O)c3cc(-c4cc(Cl)ccc4C(=O)N4Cc5ccccc5C[C@H]4CN4CCOCC4)n4ccccc34)c3ccc(O)cc3)ccc21 [Example 66, 3-{5-Chloro-2-[((3S)-3-(4-morpholinylmethyl)-3,4-dihydro-2(1H)-isoquinolinyl)carbonyl]phenyl}-N-(4-hydroxyphenyl)-N-(1-methyl-2,3-dihydro-1H-indol-5-yl)-1-indolizine carboxamide bis(hydrochloride)] | 16 nM | 21.7 nM |  |  |  | 24.7 |  | 
Cn1ccc2cc(N(C(=O)c3cc(-c4cc(Cl)ccc4C(=O)N4Cc5ccccc5C[C@H]4CN4CCOCC4)n4ccccc34)c3ccc(O)cc3)ccc21 [Example 67, 3-{5-Chloro-2-[((3S)-3-(4-morpholinylmethyl)-3,4-dihydro-2(1H)-isoquinolinyl)carbonyl]phenyl}-N-(4-hydroxyphenyl)-N-(1-methyl-1H-indol-5-yl)-1-indolizine carboxamide hydrochloride] | 24 nM | 17.7 nM |  |  |  | 18.9 |  | 
Cl.O=C(c1cc(-c2cc(Cl)ccc2C(=O)N2Cc3ccccc3C[C@H]2CN2CCOCC2)n2c1COCC2)N(c1ccccc1)c1ccc(O)cc1 [Example 78, 6-{5-Chloro-2-[((3S)-3-(4-morpholinylmethyl)-3,4-dihydro-2(1H)-isoquinolinyl)carbonyl]phenyl}-N-(4-hydroxyphenyl)-N-phenyl-3,4-dihydro-1H-pyrrolo[2,1-c][1,4]oxazine-8-carboxamide hydrochloride] | 31 nM | 101 nM |  |  |  |  | 10.4 (25 mg/kg) | 
CCCCN(C(=O)c1cc(-c2cc3c(cc2C(=O)N2Cc4ccccc4C[C@H]2CN2CCOCC2)OCO3)n2c1CCCC2)c1ccc(O)cc1.Cl [Example 87, N-Butyl-N-(4-hydroxyphenyl)-3-{6-[((3S)-3-(4-morpholinylmethyl)-3,4-dihydro-2(1H)-isoquinolinyl)carbonyl]-1,3-benzodioxol-5-yl}-5,6,7,8-tetrahydro-1-indolizine carboxamide hydrochloride] | 27 nM | 121 nM |  |  |  |  |  | 18.3 (50 mg/kg)
Cl.O=C(c1cc(-c2cc3c(cc2C(=O)N2Cc4ccccc4C[C@H]2CN2CCOCC2)OCO3)n2c1CCCC2)N(c1ccc(O)cc1)c1cccc(F)c1 [Example 122, N-(3-Fluorophenyl)-N-(4-hydroxyphenyl)-3-(6-{[(3S)-3-(morpholin-4-ylmethyl)-3,4-dihydroisoquinolin-2(1H)-yl]carbonyl}-1,3-benzdioxol-5-yl)-5,6,7,8-tetrahydroindolizine-1-carboxamide hydrochloride] | 16 nM | 43.5 nM |  |  |  |  | 17.4 (25 mg/kg) | 
Cl.Cn1cc(N(C(=O)c2cc(-c3cc(Cl)ccc3C(=O)N3Cc4ccccc4C[C@H]3CN3CCOCC3)n3c2CCCC3)c2ccc(O)cc2)cn1 [Example 135, 3-(5-Chloro-2-{[(3S)-3-(morpholin-4-ylmethyl)-3,4-dihydroisoquinolin-2(1H)-yl]carbonyl}phenyl)-N-(4-hydroxyphenyl)-N-(1-methyl-1H-pyrazol-4-yl)-5,6,7,8-tetrahydroindolizine-1-carboxamide hydrochloride] | 6 nM | 37.4 nM |  |  |  |  |  | 60 (50 mg/kg)
